The text below walks through data of patent publication US4057686A, “Sulphonic acid salts of S-adenosilmethionine” (Bioresearch Limited, priority 1974, dated 1977).

The subject of data set [1] is Parkinsons disease and Parkinsonisms. Put plainly: Clinical tests: Parkinsons disease and Parkinsonisms, with Levodopa. The format is in vivo, human. Conditions: Levodopa alone.
A short description of data set [2]: SAM content / stability on storage in the dry state. The format is physicochemical. The following applies: 60 days at 45°. As to the method: The great technical progress achieved by these new salts is their stability with time at 45° in the dry state.
The SAM content of all acids according to the present invention remains unchanged even after […] at 45° in the dry state.

With `N[C@@H](Cc1ccc(O)c(O)c1)C(=O)O` [Levodopa, reference compound], in data set [1], the “extent of the Parkinson tremor” value is listed as “cannot be modified”.

For `C[S+](CC[C@H](N)C(=O)O)C[C@H]1O[C@@H](n2cnc3c(N)ncnc32)[C@H](O)[C@@H]1O` (some centres unmarked) [chloride], the “decomposition after 60 days” value in data set [2] is listed as “completely decomposed”.
